# Results published in US10967078B2, “Radiolabelled mGluR2 PET ligands” (Janssen Pharmaceutica NV, priority 2014, dated 2021).
# Assays:
# mGlu8 = mGlu8 (Homo sapiens, UniProt O00222); assay: Selectivity for mGluR2 versus mGluR8; format: biochemical
# mGlu4 = mGlu4 (Homo sapiens, UniProt Q14833); assay: Selectivity for mGluR2 versus mGluR4; format: biochemical
# mGlu3 = mGlu3 (Homo sapiens, UniProt Q14832); assay: Selectivity for mGluR2 versus mGluR3; format: biochemical
# mGluR2 [1] = target: T1, mGluR2 (Mus musculus, UniProt Q14BI2); assay: In vitro autoradiography binding on mGluR2 KO and WT mouse brain sections; settings: for Cortex WT (TB)/cortex WT (block Co. No. 1) / spec binding, cortex WT: WT mouse cortex; for Cortex WT (TB)/cortex WT (block Co. No. 1) / spec binding, cortex WT / Striatum WT (TB)/striatum WT (block Co. No. 1) / spec binding, striatum WT: block with 10 μM Co. No. 1; for Striatum WT (TB)/striatum WT (block Co. No. 1) / spec binding, striatum WT: WT mouse striatum; for difference in tracer binding to WT and mGluR2 KO mouse brain sections: in words; for Cortex WT (TB)/Cortex KO (TB) / Striatum WT (TB)/Striatum KO (TB): total binding ratio, WT versus mGluR2 KO mouse brain sections
# T1 construct: horizontal sections of mGluR2 KO and WT mouse brain and of normal female Wistar rat brain; from tissue; host or cells: mouse brain sections (WT and mGluR2 KO), 20 µm
# T1 sequence (Q14BI2 19-872): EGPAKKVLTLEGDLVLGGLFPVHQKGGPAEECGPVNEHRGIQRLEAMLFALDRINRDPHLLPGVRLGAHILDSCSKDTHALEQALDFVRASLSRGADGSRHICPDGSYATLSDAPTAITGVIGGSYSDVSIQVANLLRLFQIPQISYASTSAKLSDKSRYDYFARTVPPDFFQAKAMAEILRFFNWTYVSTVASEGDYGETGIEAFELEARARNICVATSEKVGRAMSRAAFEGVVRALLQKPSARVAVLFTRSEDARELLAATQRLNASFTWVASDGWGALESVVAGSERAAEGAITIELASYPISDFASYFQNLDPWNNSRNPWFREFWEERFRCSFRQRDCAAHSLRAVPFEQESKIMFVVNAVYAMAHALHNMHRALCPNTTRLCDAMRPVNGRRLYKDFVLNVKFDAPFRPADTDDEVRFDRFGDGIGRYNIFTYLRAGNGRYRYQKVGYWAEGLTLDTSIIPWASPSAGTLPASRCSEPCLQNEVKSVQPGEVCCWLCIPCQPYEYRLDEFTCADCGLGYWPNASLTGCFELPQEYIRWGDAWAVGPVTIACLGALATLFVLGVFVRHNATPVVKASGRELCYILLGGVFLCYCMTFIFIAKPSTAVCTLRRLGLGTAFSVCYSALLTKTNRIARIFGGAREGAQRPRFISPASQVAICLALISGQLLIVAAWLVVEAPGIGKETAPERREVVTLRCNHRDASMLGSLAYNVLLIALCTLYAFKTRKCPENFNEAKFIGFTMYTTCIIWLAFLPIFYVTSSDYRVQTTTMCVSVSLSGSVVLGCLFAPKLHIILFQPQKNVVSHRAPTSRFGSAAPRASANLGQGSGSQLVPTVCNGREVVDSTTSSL
# Experimental: (§1) In vitro autoradiography studies were performed on horizontal sections of mGluR2 KO and WT mouse brain and of normal female Wistar rat brain (20 μm). The sections were preincubated in 50 mM Tris-HCl (MgCl2 2 mM, CaCl2 2 mM; pH 7.0) for 10 min (two times) at room temperature and dried. Next, the brain sections were incubated with tracer [^11C]-2, [^11C]-5, [^11C]-4, [^11C]-1 or [^18F]-3 diluted in the same Tris-HCl buffer as used for the preincubation additionally containing 0.1% BSA or with this tracer solution in the presence of 10 μM Co. No. 2 or Co. No. 1. The mouse brain sections were incubated with 17 kBq of carbon-11 labeled tracer and 1.7 kBq of fluorine-18 labeled tracer. For the rat brain sections this was 44 kBq of carbon-11 labeled tracer and 0.44 kBq of fluorine-18 labeled tracer. After 30 min of incubation, the brain sections were washed three times for 5 min in ice-cold Tris-HCl 50 mM ((MgCl2 2 mM, CaCl2 2 mM; pH 7.0+0.1% BSA buffer). After a quick dip in purified ice-cold water, the slides were dried. Autoradiograms were obtained by exposing the slides overnight to a high-performance phosphor storage screen (super-resolution screen; Perkin Elmer, Waltham, USA). The screens were read using a Cyclone Plus system (Perkin Elmer) and analysed using Optiquant software (Perkin Elmer). The radioactivity concentration in the autoradiograms was expressed in digital light units (DLU)/mm^2.
# (§2) To obtain additional information on the specificity of the tracer binding to mGluR2, in vitro autoradiography binding studies were performed on mGluR2 KO and WT mouse brain sections and on normal rat brain sections in presence or absence of a high concentration of mGluR2 NAM compounds (Co. No. 1 or Co. No. 2).
# [2] = Biodistribution studies in normal female Wistar rats; format: in vivo, rat; settings: for % ID blood / SUV blood / % ID bone / SUV bone / % ID carcass / % ID cerebellum / SUV cerebellum / SUV cerebrum + cerebellum / % ID cerebrum total / % ID cortex / SUV cortex / % ID heart / % ID hippocampus / SUV hippocampus / % ID intestines / % ID kidneys / % ID liver / % ID lungs / % ID muscle / SUV muscle / % ID rest of cerebrum / SUV rest of cerebrum / % ID spleen + pancreas / % ID stomach / % ID striatum / SUV striatum / % ID urine / SUV whole cerebrum: mean n=3; for SUV cerebrum + cerebellum / Total brain uptake: cerebrum + cerebellum; for Total brain uptake: n=3
# Experimental: High-performance liquid chromatography (HPLC) analysis was performed on a LaChrom Elite® HPLC system (Hitachi, Armstadt, Germany) connected to a UV spectrometer. For the analysis of radiolabeled compounds, the HPLC eluate, after passage through the UV detector, was led over a shielded 3-inch NaI(Tl) scintillation detector connected to a single channel analyser (Gabi box, Raytest, Straubenhardt, Germany). The output signal was recorded and analysed using a GINA Star data acquisition system (Raytest, Straubenhardt, Germany). Radioactivity in samples of biodistribution studies was quantified using an automated gamma counter equipped with a 3-inch NaI(Tl) well crystal coupled to a multichannel analyser (Wallac 2480 Wizard, Wallac, Turku, Finland). Results were corrected for background radiation, physical decay and counter dead time. Animals were housed in individually ventilated cages in a thermoregulated (˜22° C.), humidity-controlled facility under a 12 h/12 h light/dark cycle with access to food and water ad libitum. All animal experiments were conducted according to the Belgian code of practice for the care and use of animals, after approval from the local University Ethics Committee for Animals.
# Biodistribution studies of [^11C]-2 and [^11C]-1 were carried out in healthy female Wister rats (body weight 185-220 g) at 2 min, 30 min and 60 min post injection (p.i.) (n=3/time point). Rats were injected with about 18 MBq of the tracer via a tail vein under anesthesia (2.5% isoflurane in O2 at 1 L/min flow rate) and sacrificed by decapitation at the above specified time points. Blood and major organs were collected in tared tubes and weighed. The radioactivity in blood, organs and other body parts was measured using an automated gamma counter. For calculation of total blood radioactivity, blood mass was assumed to be 7% of the body mass. For calculation of total muscle and total bone radioactivity, muscle and bone mass were assumed to be 40% and 12% of the body mass, respectively.
# mGluR2 [3] = target: T2, mGluR2 (Rattus norvegicus, UniProt P31421); assay: In vitro autoradiography binding on normal female Wistar rat brain sections; settings: in words
# T2 construct: horizontal sections of mGluR2 KO and WT mouse brain and of normal female Wistar rat brain; from tissue; host or cells: normal female Wistar rat brain sections, 20 µm
# T2 sequence (P31421 19-872): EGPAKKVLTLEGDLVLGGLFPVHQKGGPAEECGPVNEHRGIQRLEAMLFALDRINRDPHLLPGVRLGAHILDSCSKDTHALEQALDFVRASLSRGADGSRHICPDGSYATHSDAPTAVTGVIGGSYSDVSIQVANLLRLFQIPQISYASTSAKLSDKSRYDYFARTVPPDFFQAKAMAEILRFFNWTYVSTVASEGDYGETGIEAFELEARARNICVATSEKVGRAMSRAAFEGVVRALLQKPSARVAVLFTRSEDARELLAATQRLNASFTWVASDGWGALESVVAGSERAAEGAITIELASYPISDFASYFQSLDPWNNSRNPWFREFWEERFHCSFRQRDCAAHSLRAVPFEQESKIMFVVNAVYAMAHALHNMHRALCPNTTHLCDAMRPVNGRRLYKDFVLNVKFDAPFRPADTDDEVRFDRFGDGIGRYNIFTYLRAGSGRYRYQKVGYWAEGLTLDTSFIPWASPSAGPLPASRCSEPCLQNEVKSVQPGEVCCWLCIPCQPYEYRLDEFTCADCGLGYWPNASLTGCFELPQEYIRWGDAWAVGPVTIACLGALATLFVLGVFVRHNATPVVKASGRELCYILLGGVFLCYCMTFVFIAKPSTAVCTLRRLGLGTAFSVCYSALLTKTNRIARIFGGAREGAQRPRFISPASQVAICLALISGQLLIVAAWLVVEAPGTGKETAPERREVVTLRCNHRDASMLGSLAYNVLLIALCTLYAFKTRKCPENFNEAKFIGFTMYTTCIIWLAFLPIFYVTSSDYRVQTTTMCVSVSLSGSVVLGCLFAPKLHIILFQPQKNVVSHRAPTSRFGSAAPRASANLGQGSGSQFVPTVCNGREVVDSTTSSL
# Experimental: as §1, §2
# mGlu8, sequence (O00222 34-908): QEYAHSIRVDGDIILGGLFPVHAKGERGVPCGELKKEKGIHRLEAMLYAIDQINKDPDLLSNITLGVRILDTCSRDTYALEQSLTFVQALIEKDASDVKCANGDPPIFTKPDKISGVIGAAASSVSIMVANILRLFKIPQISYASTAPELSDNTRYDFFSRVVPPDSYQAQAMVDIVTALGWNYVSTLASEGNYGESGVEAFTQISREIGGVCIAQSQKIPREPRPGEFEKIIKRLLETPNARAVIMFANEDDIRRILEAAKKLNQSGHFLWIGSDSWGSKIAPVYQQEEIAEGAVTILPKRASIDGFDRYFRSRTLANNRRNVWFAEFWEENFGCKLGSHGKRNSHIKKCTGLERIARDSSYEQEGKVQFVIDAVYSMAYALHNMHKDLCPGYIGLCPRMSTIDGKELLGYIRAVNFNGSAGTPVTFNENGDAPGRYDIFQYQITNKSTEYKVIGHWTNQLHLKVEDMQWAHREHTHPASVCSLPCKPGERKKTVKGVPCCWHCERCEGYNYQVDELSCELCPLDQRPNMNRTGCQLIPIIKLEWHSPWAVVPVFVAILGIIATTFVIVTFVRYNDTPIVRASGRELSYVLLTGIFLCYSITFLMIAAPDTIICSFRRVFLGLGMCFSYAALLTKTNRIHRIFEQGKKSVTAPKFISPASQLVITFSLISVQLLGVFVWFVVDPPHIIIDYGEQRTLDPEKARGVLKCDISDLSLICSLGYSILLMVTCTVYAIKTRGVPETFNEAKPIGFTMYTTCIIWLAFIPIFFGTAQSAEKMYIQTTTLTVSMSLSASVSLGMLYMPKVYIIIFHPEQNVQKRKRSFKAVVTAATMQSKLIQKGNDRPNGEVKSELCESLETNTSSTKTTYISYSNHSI
# mGlu4, sequence (Q14833 33-912): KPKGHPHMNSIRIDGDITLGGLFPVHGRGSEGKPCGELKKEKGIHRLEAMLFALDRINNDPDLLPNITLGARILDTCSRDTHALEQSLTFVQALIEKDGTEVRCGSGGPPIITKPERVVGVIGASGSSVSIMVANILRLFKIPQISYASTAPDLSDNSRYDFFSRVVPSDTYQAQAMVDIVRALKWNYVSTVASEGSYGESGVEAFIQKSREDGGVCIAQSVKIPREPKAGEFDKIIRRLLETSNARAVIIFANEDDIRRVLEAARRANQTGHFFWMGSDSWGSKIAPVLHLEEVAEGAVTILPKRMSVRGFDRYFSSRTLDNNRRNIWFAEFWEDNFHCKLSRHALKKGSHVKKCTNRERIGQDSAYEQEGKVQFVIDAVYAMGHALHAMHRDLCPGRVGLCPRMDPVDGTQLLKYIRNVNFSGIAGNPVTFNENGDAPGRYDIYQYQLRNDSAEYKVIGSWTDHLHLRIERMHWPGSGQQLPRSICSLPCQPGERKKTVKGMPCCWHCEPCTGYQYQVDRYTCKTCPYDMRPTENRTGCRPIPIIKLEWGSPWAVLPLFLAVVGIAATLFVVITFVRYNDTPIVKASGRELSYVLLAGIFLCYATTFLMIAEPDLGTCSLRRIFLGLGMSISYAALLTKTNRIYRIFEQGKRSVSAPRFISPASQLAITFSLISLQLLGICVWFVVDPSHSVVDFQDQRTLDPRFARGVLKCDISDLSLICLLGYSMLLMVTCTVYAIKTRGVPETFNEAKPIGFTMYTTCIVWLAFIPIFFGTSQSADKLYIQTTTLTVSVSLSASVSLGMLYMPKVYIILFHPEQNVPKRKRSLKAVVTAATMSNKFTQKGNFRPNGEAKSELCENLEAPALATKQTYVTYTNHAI
# mGlu3, sequence (Q14832 23-879): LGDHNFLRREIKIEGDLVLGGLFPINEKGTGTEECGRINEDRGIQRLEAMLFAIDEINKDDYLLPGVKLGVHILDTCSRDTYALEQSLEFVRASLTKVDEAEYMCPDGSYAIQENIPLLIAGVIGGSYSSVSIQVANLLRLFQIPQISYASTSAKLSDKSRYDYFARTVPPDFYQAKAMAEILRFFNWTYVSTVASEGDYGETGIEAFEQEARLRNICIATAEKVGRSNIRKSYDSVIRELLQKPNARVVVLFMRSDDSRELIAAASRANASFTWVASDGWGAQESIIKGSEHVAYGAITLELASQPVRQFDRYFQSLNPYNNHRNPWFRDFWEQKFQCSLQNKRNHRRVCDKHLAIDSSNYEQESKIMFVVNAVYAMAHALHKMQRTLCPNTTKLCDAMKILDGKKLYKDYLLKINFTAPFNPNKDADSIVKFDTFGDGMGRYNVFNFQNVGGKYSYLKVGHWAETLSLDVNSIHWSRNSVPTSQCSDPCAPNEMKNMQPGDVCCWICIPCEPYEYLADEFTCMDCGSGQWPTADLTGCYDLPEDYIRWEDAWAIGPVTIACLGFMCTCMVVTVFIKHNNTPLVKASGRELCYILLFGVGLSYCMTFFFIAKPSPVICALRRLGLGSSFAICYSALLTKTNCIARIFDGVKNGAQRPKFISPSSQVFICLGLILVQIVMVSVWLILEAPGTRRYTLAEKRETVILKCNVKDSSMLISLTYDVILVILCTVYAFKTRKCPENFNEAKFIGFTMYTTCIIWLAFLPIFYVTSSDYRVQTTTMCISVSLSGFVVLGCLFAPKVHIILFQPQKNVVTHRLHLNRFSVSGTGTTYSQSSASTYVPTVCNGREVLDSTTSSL
smiles,measurement,setting,value
"CNc1cc(-c2cnn3c2C(=O)N(c2ccc(C(F)(F)F)cc2)C[C@@H]3C)ccn1 [Co. No. 2, (7S)-7-Methyl-3-[2-(methylamino)-4-pyridyl]-5-[4-(trifluoromethyl)phenyl]-6,7-dihydropyrazolo[1,5-a]pyrazin-4-one]",Selectivity over mGlu8,mGlu8,1737.8
same,Selectivity over mGlu4,mGlu4,8709.6
same,Selectivity over mGlu3,mGlu3,44.7
COc1nc(N2C[C@H](C)n3ncc(-c4ccnc(N[11CH3])c4)c3C2=O)ccc1C(F)(F)F [[^11C]-5],Cortex WT (TB)/cortex WT (block Co. No. 1),mGluR2 [1],~2.4
same,"spec binding, cortex WT",mGluR2 [1],(~58% spec
same,Striatum WT (TB)/striatum WT (block Co. No. 1),mGluR2 [1],~1.9
same,"spec binding, striatum WT",mGluR2 [1],(~47% spec
same,difference in tracer binding to WT and mGluR2 KO mouse brain sections,mGluR2 [1],less pronounced
same,Cortex WT (TB)/Cortex KO (TB),mGluR2 [1],~2.6
same,Striatum WT (TB)/Striatum KO (TB),mGluR2 [1],~1.9
C[C@H]1CN(c2ccc(C(F)(F)F)cc2)C(=O)c2c(-c3ccnc([11CH3])c3)cnn21 [[^11C]-1],2 min - to- 30 min wash-out ratio,[2]; blood,1.86
same,% ID blood,"[2]; blood, 2 min p.i.",6.3 % ID
same,SUV blood,"[2]; blood, 2 min p.i.",0.90 SUV
same,% ID blood,"[2]; blood, 30 min p.i.",3.4 % ID
same,SUV blood,"[2]; blood, 30 min p.i.",0.49 SUV
same,2 min - to- 30 min wash-out ratio,[2]; bone,2.11
same,% ID bone,"[2]; bone, 2 min p.i.",5.7 % ID
same,SUV bone,"[2]; bone, 2 min p.i.",0.48 SUV
same,% ID bone,"[2]; bone, 30 min p.i.",2.7 % ID
same,SUV bone,"[2]; bone, 30 min p.i.",0.23 SUV
same,% ID carcass,[2]; 2 min p.i.,43.4 % ID
same,% ID carcass,[2]; 30 min p.i.,61.5 % ID
same,2 min - to- 30 min wash-out ratio,[2]; cerebellum,2.90
same,% ID cerebellum,"[2]; cerebellum, 2 min p.i.",0.340 % ID
same,SUV cerebellum,"[2]; cerebellum, 2 min p.i.",2.60 SUV
same,% ID cerebellum,"[2]; cerebellum, 30 min p.i.",0.120 % ID
same,SUV cerebellum,"[2]; cerebellum, 30 min p.i.",0.90 SUV
same,SUV cerebrum + cerebellum,[2]; 2 min p.i.,2.82 SUV
same,Total brain uptake,[2]; 2 min p.i.,2.0 % ID
same,Total brain uptake,"[2]; 2 min p.i., listed as [^11C-1]",2.01 ± 0.24 % ID
same,SUV cerebrum + cerebellum,[2]; 30 min p.i.,0.95 SUV
same,Total brain uptake,[2]; 30 min p.i.,0.69 ± 0.05 % ID
same,% ID cerebrum total,[2]; 2 min p.i.,1.643 % ID
same,% ID cerebrum total,[2]; 30 min p.i.,0.567 % ID
same,2 min - to- 30 min wash-out ratio,[2]; cortex,3.22
same,% ID cortex,"[2]; cortex, 2 min p.i.",0.131 % ID
same,SUV cortex,"[2]; cortex, 2 min p.i.",3.51 SUV
same,% ID cortex,"[2]; cortex, 30 min p.i.",0.039 % ID
same,SUV cortex,"[2]; cortex, 30 min p.i.",1.09 SUV
same,% ID heart,[2]; 2 min p.i.,0.6 % ID
same,% ID heart,[2]; 30 min p.i.,0.5 % ID
same,2 min - to- 30 min wash-out ratio,[2]; hippocampus,2.76
same,% ID hippocampus,"[2]; hippocampus, 2 min p.i.",0.083 % ID
same,SUV hippocampus,"[2]; hippocampus, 2 min p.i.",2.41 SUV
same,% ID hippocampus,"[2]; hippocampus, 30 min p.i.",0.031 % ID
same,SUV hippocampus,"[2]; hippocampus, 30 min p.i.",0.87 SUV
same,% ID intestines,[2]; 2 min p.i.,10.1 % ID
same,% ID intestines,[2]; 30 min p.i.,11.1 % ID
same,% ID kidneys,[2]; 2 min p.i.,2.9 % ID
same,% ID kidneys,[2]; 30 min p.i.,1.6 % ID
same,% ID liver,[2]; 2 min p.i.,31.2 % ID
same,% ID liver,[2]; 30 min p.i.,14.2 % ID
same,% ID lungs,[2]; 2 min p.i.,2.1 % ID
same,% ID lungs,[2]; 30 min p.i.,0.9 % ID
same,2 min - to- 30 min wash-out ratio,[2]; muscle,0.61
same,% ID muscle,"[2]; muscle, 2 min p.i.",15.1 % ID
same,SUV muscle,"[2]; muscle, 2 min p.i.",0.38 SUV
same,% ID muscle,"[2]; muscle, 30 min p.i.",24.9 % ID
same,SUV muscle,"[2]; muscle, 30 min p.i.",0.62 SUV
same,2 min - to- 30 min wash-out ratio,[2]; rest of cerebrum,3.00
same,% ID rest of cerebrum,"[2]; rest of cerebrum, 2 min p.i.",1.286 % ID
same,SUV rest of cerebrum,"[2]; rest of cerebrum, 2 min p.i.",2.83 SUV
same,% ID rest of cerebrum,"[2]; rest of cerebrum, 30 min p.i.",0.445 % ID
same,SUV rest of cerebrum,"[2]; rest of cerebrum, 30 min p.i.",0.94 SUV
same,% ID spleen + pancreas,[2]; 2 min p.i.,1.9 % ID
same,% ID spleen + pancreas,[2]; 30 min p.i.,1.2 % ID
same,% ID stomach,[2]; 2 min p.i.,2.8 % ID
same,% ID stomach,[2]; 30 min p.i.,6.4 % ID
same,2 min - to- 30 min wash-out ratio,[2]; striatum,2.68
same,% ID striatum,"[2]; striatum, 2 min p.i.",0.143 % ID
same,SUV striatum,"[2]; striatum, 2 min p.i.",2.58 SUV
same,% ID striatum,"[2]; striatum, 30 min p.i.",0.052 % ID
same,SUV striatum,"[2]; striatum, 30 min p.i.",0.97 SUV
same,% ID urine,[2]; 2 min p.i.,0.1 % ID
same,% ID urine,[2]; 30 min p.i.,0.1 % ID
same,2 min - to- 30 min wash-out ratio,[2]; whole cerebrum,2.98
same,SUV whole cerebrum,"[2]; whole cerebrum, 2 min p.i.",2.83 SUV
same,SUV whole cerebrum,"[2]; whole cerebrum, 30 min p.i.",0.95 SUV
same,total binding to normal rat brain sections,mGluR2 [3],less pronounced
same,Cortex WT (TB)/cortex WT (block Co. No. 1),mGluR2 [1],~21.5
same,"spec binding, cortex WT",mGluR2 [1],(~95% spec
same,Striatum WT (TB)/striatum WT (block Co. No. 1),mGluR2 [1],~11.8
same,"spec binding, striatum WT",mGluR2 [1],(~92% specific
same,difference in tracer binding to WT and mGluR2 KO mouse brain sections,mGluR2 [1],significant difference
same,Cortex WT (TB)/Cortex KO (TB),mGluR2 [1],~7.1
same,Striatum WT (TB)/Striatum KO (TB),mGluR2 [1],~3.8
